Assay results reported in patent US7064120B2, “Tricyclic pyridyl carboxamides and derivatives thereof tocolytic oxytocin receptor antagonists” (Wyeth, priority 2001, dated 2006).

Each compound was assayed against T1, human oxytocin receptor (Homo sapiens, UniProt P30559) (assay: Oxytocin binding in CHO cell membranes expressing human oxytocin receptors ([3H]oxytocin radioligand binding)). Details: 100 nM.
T1 construct: host or cells: CHO cells, stably transfected (pcDNA3.1 vector)
T1 sequence (P30559 1-389): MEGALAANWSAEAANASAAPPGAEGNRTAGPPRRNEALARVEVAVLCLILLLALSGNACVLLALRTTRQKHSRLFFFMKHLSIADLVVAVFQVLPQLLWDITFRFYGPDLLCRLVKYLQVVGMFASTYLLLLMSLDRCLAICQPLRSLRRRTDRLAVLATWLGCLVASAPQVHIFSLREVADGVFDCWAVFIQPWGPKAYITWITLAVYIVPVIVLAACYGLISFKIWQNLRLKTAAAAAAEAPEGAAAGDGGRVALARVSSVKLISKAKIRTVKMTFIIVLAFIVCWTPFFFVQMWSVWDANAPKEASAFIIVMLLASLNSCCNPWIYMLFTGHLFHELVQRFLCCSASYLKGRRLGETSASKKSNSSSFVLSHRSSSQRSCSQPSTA
Protocol: Oxytocin Binding in Chinese Hamster Ovary Cell Membranes Expressing Human Oxytocin Receptors
Cell Culture medium (e.g. 30 mL for 1:30 split) is immediately added and mixed well to inactivate trypsin. 1 mL of detached cells is added to new culture flasks containing fresh Cell Culture medium (e.g. into 25 mL per T-150 flask), and mixed gently. The cells are incubated at 37° C. in 5% CO2. The medium is changed at 3 to 4 days interval (or as appropriate). […] All steps are done under sterile conditions.
The cells are washed twice gently with Hank's Balanced Salt solution (e.g., use 10 mL per T-150 flask). […] The contents are transferred to centrifuge tubes (50 mL size) kept in ice bath. All subsequent steps are done at 4° C. The tubes are centrifuged at 300×g for 15 min (1380 rpm on SORVAL, Model RT6000D, using rotor for 50 mL tubes). The supernatant is discarded and the cells suspended in homogenizing buffer (10 mM Tris-HCl containing 0.25 M sucrose and 1 mM EDTA, pH 7.4) ensuring that the volume of the buffer is about ten times the volume of the cell pellet. The cells are pooled into a centrifuge tube (50 mL) and homogenized with a Polytron at setting 6 for 10 sec. The homogenate is transferred into a Potter-Elvjehm homogenizer and homogenized with 3 strokes. The homogenate is centrifuged at 1500×g for 10 min at 4° C. (3100 rpm using SORVAL, model RT6000D, using a rotor for 50 mL tubes). The pellet is discarded. The supernatant is centrifuged at 100,000×g for 60 min. at 4° C. (Beckman L8-80M ultracentrifuge; spin at 37,500 rpm with rotor type 70 Ti for 50 mL tubes; 38,000 rpm with rotor type 8OTi for 15 mL tubes; or 35,800 rpm with rotor type 45Ti). The supernantant is discarded and the pellet suspended in 3 to 4 mL of Tris buffer (50 mM TRIS-HCl, pH 7.4). The protein content is estimated by the Bradford or Lowry method. The volume of the membrane suspension is adjusted with the membrane buffer (50 mM Tris-HCl containing 0.1% BSA and 0.1 mM PMSF) to give 3.0 mg/mL (or as appropriate) of protein. The membranes are aliquoted and stored at −70° C.
In wells of a 96-well format microtiter plate, is added 90, 110 or 130 μL (to make up a final volume of 200 μL) of assay buffer containing 50 mM of Tris-HCl (pH 7.4), […], 1 mg % aprotinin, 1 mg % leupeptin, 2 mg % 1,10-phenanthroline, 10 mg % trypsin inhibitor, and 0.1 mM PMSF. The inhibitors are added on the day of the experiment. The components are mixed at room temperature, and then kept in ice bath following adjustment of the pH to 7.4. […] For oxytocin and other peptide ligands, 20 μL of 50% DMSO is added and the assay buffer volume is adjusted accordingly. To each well is added 50 μL of frozen membrane suspension thawed immediately prior to use and diluted in assay buffer to the required concentration (equivalent to 25 to 50 μg of protein/well as needed). 20 μL of 8 nM [^3H]oxytocin in the assay buffer, prepared just before use is added and incubated at room temperature for 60 min. shaking the plate on a mechanical shaker for the first 15 min. The incubation is stopped by rapid filtration of the plate contents followed by washing with ice-cold buffer (50 mM Tris-HCl, pH 7.4) using a cell harvester (Tomtek and Printed filtermat-B filter paper). The filter paper is thoroughly dried (7–12 min. in a microwave oven) and impregnated with MeltiLex B/H melt-on scintillation wax sheets and the radioactivity counted in a betaplate scintillation counter.
Binding data is either reported as percent inhibition at a certain concentration or if an IC50 was calculated, as a nanomolar concentration.

Compound | OT % inhibition @ 100 nM
Cc1cc(C(=O)N2Cc3ccc(C(=O)NCCc4ccccn4)n3Cc3ccccc32)ccc1-c1ccccc1C(F)(F)F [Example 61, 10-{[2-Methyl-2′-trifluoromethyl=[1,1′-biphenyl]-4-yl]carbonyl}-N-[2-(2-pyridinyl)ethyl]-10,11-dihydro-5H-pyrrolo[2,1-c][1,4]benzodiazepine-3-carboxamide] | 26%
COc1cc(C(=O)N2Cc3ccc(C(=O)N4CCN(c5ccncc5)CC4)n3Cc3ccccc32)ccc1-c1ccccc1C [Example 118] | 83%

Same assay, conditions: 100 nM, read-out: OT % inhibition @ 100 nM

Compound | inhibition at 0.1 µM
COc1cc(-c2ccccc2C)c(Cl)cc1C(=O)N1Cc2ccc(C(=O)NCc3cccnc3)n2Cc2ccccc21 [Example 42, 10-[(6-Chloro-3-methoxy-2′-methyl-[1,1′-biphenyl]-4-yl)carbonyl]-N-(3-pyridinylmethyl)-10,11-dihydro-5H-pyrrolo[2,1-c][1,4]benzodiazepine-3-carboxamide] | 33%
COc1ccccc1-c1ccc(C(=O)N2Cc3ccc(C(=O)NCc4cccnc4)n3Cc3ccccc32)cc1 [Example 39, 10-[(2′-Methoxy-[1,1′-biphenyl]-4-yl)carbonyl]-N-(3-pyridinylmethyl)-10,11-dihydro-5H-pyrrolo[2,1-c][1,4]benzodiazepine-3-carboxamide] | 35%
Cc1ccccc1-c1ccc(C(=O)N2Cc3ccc(C(=O)N(C)CCc4ccncc4)n3Cc3ccccc32)cc1C [Example 127, 10-[(2,2′-Dimethyl-[1,1′-biphenyl]-4-yl)carbonyl]-N-methyl-N-[2-(4-pyridinyl)ethyl]-10,11-dihydro-5H-pyrrolo[2,1-c][1,4]benzodiazepine-3-carboxamide] | 102%
COc1cc(-c2ccccc2C)c(Cl)cc1C(=O)N1Cc2ccc(C(=O)N3CCN(c4ccncc4)CC3)n2Cc2ccccc21 [Example 119, {10-[(6-Chloro-3-methoxy-2′-methyl-[1,1′-biphenyl]-4-yl)carbonyl]-10,11-dihydro-5H-pyrrolo[2,1-c][1,4]benzodiazepin-3-yl}[4-(4-pyridinyl)-1-piperazinyl]methanone] | 83%
COc1cc(C(=O)N2Cc3ccc(C(=O)N(C)Cc4cccnc4)n3Cc3ccccc32)ccc1-c1cccc2ccccc12 [Example 109, 10-[3-Methoxy-4-(naphthalen-1-yl)benzoyl]-N-methyl-N-(3-pyridinylmethyl)-10,11-dihydro-5H-pyrrolo[2,1-c][1,4]benzodiazepine-3-carboxamide] | 70%
COc1cccc(-c2ccc(C(=O)N3Cc4ccc(C(=O)N(C)CCc5ccncc5)n4Cc4ccccc43)cc2OC)c1 [Example 135, 10-[(2,3′-Dimethoxy-[1,1′-biphenyl]-4-yl)carbonyl]-N-methyl-N-[2-(4-pyridinyl)ethyl]-10,11-dihydro-5H-pyrrolo[2,1-c][1,4]benzodiazepine-3-carboxamide] | 96%
COc1cc(C(=O)N2Cc3ccc(C(=O)N(C)CCc4ccncc4)n3Cc3ccccc32)ccc1-n1c(C)ccc1C [Example 147, 10-[4-(2,5-Dimethyl-1H-pyrrol-1-yl)-3-methoxybenzoyl]-N-methyl-N-[2-(pyridin-4-yl)ethyl]-10,11-dihydro-5H-pyrrolo[2,1-c][1,4]benzodiazepine-3-carboxamide] | 64%
COc1ccccc1-c1ccc(C(=O)N2Cc3ccc(C(=O)N4CCN(c5ccncc5)CC4)n3Cc3ccccc32)cc1OC [Example 122, {10-[(2,2′-Dimethoxy-[1,1′-biphenyl]-4-yl)carbonyl]-10,11-dihydro-5H-pyrrolo[2,1-c][1,4]benzodiazepin-3-yl}[4-(4-pyridinyl)-1-piperazinyl]methanone] | 61%
COc1cccc(-c2cc(OC)c(C(=O)N3Cc4ccc(C(=O)NCCc5ccccn5)n4Cc4ccccc43)cc2Cl)c1 [Example 56, 10-[(6-Chloro-3,3′-dimethoxy-[1,1′-biphenyl]-4-yl)carbonyl]-N-[2-(2-pyridinyl)ethyl]-10,11-dihydro-5H-pyrrolo[2,1-c][1,4]benzodiazepine-3-carboxamide] | 31%
COc1cc(C(=O)N2Cc3ccc(C(=O)NCc4ccccn4)n3Cc3ccccc32)ccc1-c1ccccc1C [Example 28, 10-[(2-Methoxy-2′-methyl-[1,1′-biphenyl]-4-yl)carbonyl]-N-(2-pyridinylmethyl)-10,11-dihydro-5H-pyrrolo[2,1-c][1,4]benzodiazepine-3-carboxamide] | 50%
COc1cc(C(=O)N2Cc3ccc(C(=O)N4CCN(c5ccncc5)CC4)n3Cc3ccccc32)ccc1-c1cccc2ccccc12 [Example 121, {10-[3-Methoxy-4-(naphthalen-1-yl)benzoyl]-10,11-dihydro-5H-pyrrolo[2,1-c][1,4]benzodiazepin-3-yl}[4-(4-pyridinyl)-1-piperazinyl]methanone] | 57%
COc1cccc(-c2cc(OC)c(C(=O)N3Cc4ccc(C(=O)NCc5ccccn5)n4Cc4ccccc43)cc2Cl)c1 [Example 30, 10-[(6-Chloro-3,3′-dimethoxy-[1,1′-biphenyl]-4-yl)carbonyl]-N-(2-pyridinylmethyl)-10,11-dihydro-5H-pyrrolo[2,1-c][1,4]benzodiazepine-3-carboxamide] | 25%
COc1cc(C(=O)N2Cc3ccc(C(=O)N(C)Cc4cccnc4)n3Cc3ccccc32)ccc1-c1ccccc1C [Example 106, 10-[(2-Methoxy-2′-methyl-[1,1′-biphenyl]-4-yl)carbonyl]-N-methyl-N-(3-pyridinylmethyl)-10,11-dihydro-5H-pyrrolo[2,1-c][1,4]benzodiazepine-3-carboxamide] | 98%
O=C(c1ccc2n1Cc1ccccc1N(C(=O)c1ccc(-c3cccc4ccccc34)cc1Cl)C2)N1CCN(c2ccncc2)CC1 [Example 124, {10-[2-Chloro-4-(naphthalen-1-yl)benzoyl]-10,11-dihydro-5H-pyrrolo[2,1-c][1,4]benzodiazepin-3-yl}[4-(4-pyridinyl)-1-piperazinyl]methanone] | 24%
COc1cccc(-c2ccc(C(=O)N3Cc4ccc(C(=O)NCc5ccccn5)n4Cc4ccccc43)cc2C)c1 [Example 25, 10-[(3′-Methoxy-2-methyl-[1,1′-biphenyl]-4-yl)carbonyl]-N-(2-pyridinylmethyl)-10,11-dihydro-5H-pyrrolo[2,1-c][1,4]benzodiazepine-3-carboxamide] | 50%
COc1cc(C(=O)N2Cc3ccc(C(=O)NCc4cccnc4)n3Cc3ccccc32)ccc1-c1cccc2ccccc12 [Example 44, 10-[3-Methoxy-4-(naphthalen-1-yl)benzoyl]-N-(3-pyridinylmethyl)-10,11-dihydro-5H-pyrrolo[2,1-c][1,4]benzodiazepine-3-carboxamide] | 22%
COc1cc(-c2ccccc2C)c(Cl)cc1C(=O)N1Cc2ccc(C(=O)N(C)Cc3cccnc3)n2Cc2ccccc21 [Example 107, 10-[(6-Chloro-3-methoxy-2′-methyl-[1,1′-biphenyl]-4-yl)carbonyl]-N-methyl-N-(3-pyridinylmethyl)-10,11-dihydro-5H-pyrrolo[2,1-c][1,4]benzodiazepine-3-carboxamide] | 92%
